{"source": "paper PMC10891602", "about": "“Improvement of Carotenoids’ Production by Increasing the Activity of Beta-Carotene Ketolase with Different Strategies” (Microorganisms, 2024)", "key": {"[1]": {"molecular_target": "T1, CrtWBsp (Brevundimonas sp. NBRC 101024, UniProt Q4W8B8)", "T1 construct": "gene crtW", "T1 sequence (Q4W8B8 1-244)": "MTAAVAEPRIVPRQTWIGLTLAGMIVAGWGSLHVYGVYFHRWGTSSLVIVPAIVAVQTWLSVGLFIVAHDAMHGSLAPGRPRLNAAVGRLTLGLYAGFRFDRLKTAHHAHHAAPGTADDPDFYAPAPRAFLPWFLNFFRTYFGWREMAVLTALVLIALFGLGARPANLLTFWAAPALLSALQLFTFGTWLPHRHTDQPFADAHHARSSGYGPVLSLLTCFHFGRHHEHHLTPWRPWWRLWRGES", "assay": "HPLC of echinenone and canthaxanthin formed by crude extract", "assay_type": "biochemical", "conditions": "Fe2+, 2-oxoglutarate, ascorbate, NADPH, ATP; pH 8.0; 30 °C; 3 h"}, "[2]": {"molecular_target": "T2, CzW1 (Chromochloris zofingiensis, UniProt Q5U931)", "T2 construct": "gene bkt/crto", "T2 sequence (Q5U931 1-312)": "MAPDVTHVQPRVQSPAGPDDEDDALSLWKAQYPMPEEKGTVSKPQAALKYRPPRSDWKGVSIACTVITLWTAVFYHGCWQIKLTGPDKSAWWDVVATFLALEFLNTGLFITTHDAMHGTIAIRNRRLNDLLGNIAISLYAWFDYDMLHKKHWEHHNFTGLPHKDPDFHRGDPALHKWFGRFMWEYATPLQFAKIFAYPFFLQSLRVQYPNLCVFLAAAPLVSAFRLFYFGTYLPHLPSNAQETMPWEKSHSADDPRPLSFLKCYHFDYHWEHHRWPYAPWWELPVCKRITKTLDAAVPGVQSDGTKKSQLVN", "assay": "HPLC of echinenone and canthaxanthin formed by crude extract", "assay_type": "biochemical", "conditions": "Fe2+, 2-oxoglutarate, ascorbate, NADPH, ATP; pH 8.0; 30 °C; 3 h"}}, "data": [{"molecule": "CC1=C(/C=C/C(C)=C/C=C/C(C)=C/C=C/C=C(C)/C=C/C=C(C)/C=C/C2=C(C)CCCC2(C)C)C(C)(C)CCC1", "note": "[β-carotene]", "values": [{"measurement": "HPLC of echinenone and canthaxanthin formed by crude extract", "setting": "[1]", "result": "β-carotene ketolase from p30CrtWBsp was more efficient in the production of echinenone and canthaxanthin"}, {"measurement": "HPLC of echinenone and canthaxanthin formed by crude extract", "setting": "[2]", "result": "canthaxanthin was only detected in enzymatic solution containing protein extracts from E. coli with pCrtWBsp and pCzW1"}]}]}
